Data from patent US20170045513A1, “METHODS OF DIAGNOSING CELIAC DISEASE USING IP-10” (ImmusanT, Inc., priority 2014, published 2017).
Non-standard residues stand in square brackets, D forms with d. pGlu = O=C1CC[C@@H](C(=O)O)N1

System: gluten-reactive T cells
Assay: 96-well plate whole blood cytokine release, IP-10 by MAGPIX multiplex bead assay
Assay type: cell-based, human
Conditions: for Percent of maximal response to individual gluten peptides, IP-10: after oral gluten challenge; for IP-10 WB MAGPIX % max Mean: n = 10, blood after oral gluten challenge, individual peptides 5 μM (Peptide 2* of P14, Pepscan: 10 μg/mL (5.45 μM))

Substance | Percent of maximal response to individual gluten peptides, IP-10 (Subject 1, Max. 2331 pg/mL) | Percent of maximal response to individual gluten peptides, IP-10 (Subject 2, Max. 3646 pg/mL) | Percent of maximal response to individual gluten peptides, IP-10 (Subject 3, Max. 9492 pg/mL) | Percent of maximal response to individual gluten peptides, IP-10 (Subject 4, Max. 9463 pg/mL) | Percent of maximal response to individual gluten peptides, IP-10 (Subject 5, Max. 9336 pg/mL) | Percent of maximal response to individual gluten peptides, IP-10 (Subject 6, Max. 5863 pg/mL) | Percent of maximal response to individual gluten peptides, IP-10 (Subject 7, Max. 2330 pg/mL) | Percent of maximal response to individual gluten peptides, IP-10 (Subject 8, Max. 4019 pg/mL) | Percent of maximal response to individual gluten peptides, IP-10 (Subject 9, Max. 8349 pg/mL) | Percent of maximal response to individual gluten peptides, IP-10 (Subject 10, Max. 8922 pg/mL) | IP-10 WB MAGPIX % max Mean [% max]
(pE)QPFPQPEQPTPIQPEQP-amide ([pGlu]QPFPQPEQPTPIQPEQP-NH2; SMILES CC[C@H](C)[C@H](NC(=O)[C@@H]1CCCN1C(=O)[C@@H](NC(=O)[C@@H]1CCCN1C(=O)[C@H](CCC(N)=O)NC(=O)[C@H](CCC(=O)O)NC(=O)[C@@H]1CCCN1C(=O)[C@H](CCC(N)=O)NC(=O)[C@@H]1CCCN1C(=O)[C@H](Cc1ccccc1)NC(=O)[C@@H]1CCCN1C(=O)[C@H](CCC(N)=O)NC(=O)[C@@H]1CCC(=O)N1)[C@@H](C)O)C(=O)N[C@@H](CCC(N)=O)C(=O)N1CCC[C@H]1C(=O)N[C@@H](CCC(=O)O)C(=O)N[C@@H](CCC(N)=O)C(=O)N1CCC[C@H]1C(N)=O) [Peptide 5] | 0 % of max | 13 % of max | ≥ 100 % of max | 46 % of max | 13 % of max | 1 % of max | 2 % of max | 4 % of max | 10 % of max | 60 % of max | 25
(pE)QPPFSEQEQPVLPQ-amide (N-terminal pyroglutamate; C-terminal amide) [Peptide 13] | 0 % of max | 16 % of max | 70 % of max | 0 % of max | 6 % of max | 5 % of max | 0 % of max | 0 % of max | 0 % of max | 0 % of max | 10
(pE)LQPFPQPELPYPQPQ-amide ([pGlu]LQPFPQPELPYPQPQ-NH2; SMILES CC(C)C[C@H](NC(=O)[C@@H]1CCC(=O)N1)C(=O)N[C@@H](CCC(N)=O)C(=O)N1CCC[C@H]1C(=O)N[C@@H](Cc1ccccc1)C(=O)N1CCC[C@H]1C(=O)N[C@@H](CCC(N)=O)C(=O)N1CCC[C@H]1C(=O)N[C@@H](CCC(=O)O)C(=O)N[C@@H](CC(C)C)C(=O)N1CCC[C@H]1C(=O)N[C@@H](Cc1ccc(O)cc1)C(=O)N1CCC[C@H]1C(=O)N[C@@H](CCC(N)=O)C(=O)N1CCC[C@H]1C(=O)N[C@@H](CCC(N)=O)C(N)=O) [Peptide 1] | 100 % of max | 100 % of max | ≥ 100 % of max | 96 % of max | 14 % of max | 23 % of max | 39 % of max | 3 % of max | 75 % of max | 34 % of max | 58
(pE)SGEGSFQPSQENPQ-amide ([pGlu]SGEGSFQPSQENPQ-NH2; SMILES NC(=O)CC[C@H](NC(=O)[C@@H]1CCCN1C(=O)[C@H](CC(N)=O)NC(=O)[C@H](CCC(=O)O)NC(=O)[C@H](CCC(N)=O)NC(=O)[C@H](CO)NC(=O)[C@@H]1CCCN1C(=O)[C@H](CCC(N)=O)NC(=O)[C@H](Cc1ccccc1)NC(=O)[C@H](CO)NC(=O)CNC(=O)[C@H](CCC(=O)O)NC(=O)CNC(=O)[C@H](CO)NC(=O)[C@@H]1CCC(=O)N1)C(N)=O) [Peptide 9] | 0 % of max | 0 % of max | 0 % of max | 0 % of max | 0 % of max | 0 % of max | 0 % of max | 0 % of max | 0 % of max | 0 % of max | 0
(pE)QPFPQPEQPIPVQPEQS-amide ([pGlu]QPFPQPEQPIPVQPEQS-NH2; SMILES CC[C@H](C)[C@H](NC(=O)[C@@H]1CCCN1C(=O)[C@H](CCC(N)=O)NC(=O)[C@H](CCC(=O)O)NC(=O)[C@@H]1CCCN1C(=O)[C@H](CCC(N)=O)NC(=O)[C@@H]1CCCN1C(=O)[C@H](Cc1ccccc1)NC(=O)[C@@H]1CCCN1C(=O)[C@H](CCC(N)=O)NC(=O)[C@@H]1CCC(=O)N1)C(=O)N1CCC[C@H]1C(=O)N[C@H](C(=O)N[C@@H](CCC(N)=O)C(=O)N1CCC[C@H]1C(=O)N[C@@H](CCC(=O)O)C(=O)N[C@@H](CCC(N)=O)C(=O)N[C@@H](CO)C(N)=O)C(C)C) [Peptide 4] | 18 % of max | 19 % of max | ≥ 100 % of max | ≥ 100 % of max | 51 % of max | 2 % of max | 3 % of max | 7 % of max | 48 % of max | 30 % of max | 38
